Experimental findings from patent EP1210336B1, “SUBSTITUTED BENZIMIDAZOLES AS NON-NUCLEOSIDE INHIBITORS OF REVERSE TRANSCRIPTASE” (THE UNITED STATES OF AMERICA, as represented by the …, priority 1999, dated 2001) are described below.

One assay relates to NL4-3 (WT). Put plainly: Cytopathic cell killing assay, cross-resistance profile, infected MT-4 cells. Format: cell-based, HIV-1. To be noted: Human immunodeficiency virus 1, NL43, MT4, Table 8; isolate N1.43. The text has this:
(§1) The various HIV isolates tested in the Figures are those corresponding to wild-type virus (NL4-3) and the other strains listed by their RT mutations. The three 4xAZT isolates included in the Figures represent AZT drug-resistant variants. For example, the 4xAZT/L100I isolate has five mutations: four mutations confer increased resistance to AZT, and the other mutation is located within the NNRTI binding pocket. TZB and nevir. (nevirapine) are two well-known NNRTIs, included in this experiment for comparison purposes. […]
(§2) In this Example, the antiviral and cellular toxicity of NNRTIs was investigated, using the cytopathic cell killing assay described by Yang (Yang et al., "Characteristics of a Group of Non-nucleoside Reverse Transcriptase Inhibitors with Structural Diversity and Potent Anti-Human Immunodeficiency Virus Activity," Leukemia 9:S75-S85 [1995]). Briefly, in this method cells (e.g., the CEM-SS cell line, available from the NIAID AIDS Research and Reference Program [ARRRP]) were seeded at a density of 5 x 10^3 cells/well, into the wells of a 96-well microtiter plate. The cells were then infected with HIV virus (either mutant or WT), at a multiplicity of infection (MOI) previously determined to provide complete cell killing by 6 days of culture post-infection (e.g., MOI of 0.01-0.05). Each of the HIV isolates was pre-titered to induce equivalent levels of infection based on cell killing or virus production, prior to their use in these assays. A range of test compound concentrations was added to the wells in triplicate (e.g., serial half-log dilutions) to evaluate inhibition of HIV infection. Controls for each assay included drug controls (drug colorimetric control wells), drug cytotoxicity control wells (cells with drug), virus control wells (cells with virus), and cell viability controls (cells only). Positive control drugs (e.g., AZT and ddC) were also run in parallel.
(§3) After six days of incubation at 37°C, cell viability was determined spectrophotometrically at 450 nm for each well, using the metabolic reduction of XTT to a soluble colored formazan. (See, Gartner and Popovic, "Virus Isolation and Production, in Aldovini and Walker (eds.), Techniques in HIV Research, Stockton Press, NY, pp. […] [1991]; and Nara and Fischinger, "Quantitative Infectivity Assay for HIV-1 and HIV-2," Nature 332:469-470 [1988]).
(§4) The in vitro therapeutic index (TI50) was defined as the fold-difference between the EC50 and IC50. The results for the various compounds are included in Figures 8 and 19.
In general terms: Damage to the host cells serves as the signal in cytopathic effect assays.

A further assay relates to WT virus (NL4-3). Put plainly: microbe, parasite or virus in culture. Format: cell-based, HIV-1. Particulars: for EC50: Human immunodeficiency virus 1, NL43, CEM-SS, read-out: EC50. The protocol:
Evaluation of these compounds for the inhibition of HIV-1 was determined as the fifty percent cell culture inhibitory concentration (CIC50) in CEMSS cell culture with WT virus (NL4-3).
as §2, §3, §4

In assay [1] the test system is HIV-1 isolate 4xAZT/L100I. Briefly: Cytopathic cell killing assay, cross-resistance profile, infected MT-4 cells. Format: cell-based. To be noted: Human immunodeficiency virus 1, MT4, Table 8; isolate 4XA7T L 1001. The protocol:
The various HIV isolates tested in the Figures are those corresponding to wild-type virus (NL4-3) and the other strains listed by their RT mutations. The three 4xAZT isolates included in the Figures represent AZT drug-resistant variants. […]
as §2, with “Briefly,” for “In this Example, the antiviral and cellular toxicity of NNRTIs was investigated, using the cytopathic cell killing assay described by Yang (Yang et al., "Characteristics of a Group of Non-nucleoside Reverse Transcriptase Inhibitors with Structural Diversity and Potent Anti-Human Immunodeficiency Virus Activity," Leukemia 9:S75-S85 [1995]). Briefly,”
as §3
The in vitro therapeutic index (TI50) was defined as the fold-difference between the EC50 and IC50.

Another assay relates to HIV-1 variant V108I. The description is as above. Particulars: Human immunodeficiency virus 1, MT4, Table 8; isolate V1081. Format: cell-based.
Description: as §1, §2, §3, §4

Assay [2] relates to HIV-1 isolate 4xAZT/Y181C. The description is as above. Particulars: Human immunodeficiency virus 1, MT4, Table 8; isolate 4XAZT /Y181C. Format: cell-based.
Description: as §1, §2, §3, §4

The subject of another assay is HIV-1 variant L100I. The description is as above. Format: cell-based. Particulars: Human immunodeficiency virus 1, MT4, Table 8; isolate 1.1001.
Description: as §1, §2, §3, §4

The test system of the next assay is HIV-1 variant L74V. The assay is described as above. Format: cell-based. Particulars: Human immunodeficiency virus 1, MT4, Table 8; isolate 1.74V.
Description: as §1, §2, §3, §4

The next assay has as its system HIV-1 variant V106A. The assay is described as above. Particulars: Human immunodeficiency virus 1, MT4, Table 8; isolate V 106A. Format: cell-based.
Description: as §1, §2, §3, §4

The next assay deals with HIV-1 isolate 4xAZT. Described as above. Format: cell-based. Particulars: Human immunodeficiency virus 1, MT4, Table 8; isolate 4XAZT.
Description: as §1, §2, §3, §4

Another assay deals with HIV-1 variant A98G. The assay is described as above. Format: cell-based. Particulars: Human immunodeficiency virus 1, MT4, Table 8; isolate A9SG.
Description: as §1, §2, §3, §4

A further assay concerns HIV-1 variant V179D. The description is as above. Format: cell-based. To be noted: Human immunodeficiency virus 1, MT4, Table 8; isolate V179D.
Description: as §1, §2, §3, §4

In another assay the test system is HIV-1 variant Y188C. The description is as above. Format: cell-based. Particulars: Human immunodeficiency virus 1, MT4, Table 8; isolate Y 188C.
Description: as §1, §2, §3, §4

A further assay concerns HIV-1 variant K101E. The assay is described as above. Format: cell-based. Particulars: Human immunodeficiency virus 1, MT4, Table 8; isolate K101E.
Description: as §1, §2, §3, §4

For a further assay, the system named is HIV-1 variant K103N. Described as above. Format: cell-based. To be noted: Human immunodeficiency virus 1, MT4, Table 8; isolate K103N.
Description: as §1, §2, §3, §4

Where [3] appears, read: Table 7, concentration reducing cell killing or virus production by 50%, HIV-1 WT.
[4] abbreviates: Table 11, CEMSS/NL4-3, NRVC = reduction in viral CPE not seen (footnote).

Like-named read-outs stand apart in the source and are kept apart here.

Consider `CNc1cccc2c1nc(-c1c(F)cccc1F)n2Cc1c(F)cccc1F` [compound 58, 1-(2,6-Difluorobenzyl)-2-(2,6-difluorophenyl)-4-(N-methylamino)-benzimidazole], for which the half-maximal effective concentration (EC50) (usually the concentration needed to bring the measured effect to its halfway point) was 2600 nM in the assay on NL4-3 (WT); 1700 nM in the assay on WT virus (NL4-3) (setting [3]); 1700 nM in the assay with WT virus (NL4-3) (setting [4]); 1000 nM in assay [1]; more than 20000 nM in the assay on HIV-1 variant V108I; more than 20000 nM in assay [2]. In addition, the half-maximal effective concentration (EC50) in the assay with HIV-1 variant L100I was 400 nM; in the assay with HIV-1 variant L74V, 3900 nM; in the assay on HIV-1 variant V106A, more than 20000 nM; in the assay on HIV-1 isolate 4xAZT it was more than 10000 nM; with HIV-1 variant A98G it was 8500 nM; with HIV-1 variant V179D, more than 10000 nM. Further, the concentration for a half-maximal effect (EC50) in the assay on HIV-1 variant Y188C, with HIV-1 variant K101E and in the assay with HIV-1 variant K103N was more than 20000 nM each time.

On to `CC(=O)N(C)c1cccc2c1nc(-c1c(F)cccc1F)n2Cc1c(F)cccc1F` [compound 57, 1-(2,6-Difluorobenzyl)-2-(2,6-difluorophenyl)-4-(N-methylacetamido)-benzimidazole], for which the concentration for a half-maximal effect (EC50) in the assay on NL4-3 (WT) is 40 nM; with WT virus (NL4-3) (setting [3]) it was 20 nM; with WT virus (NL4-3) (setting [4]), 20 nM; in the assay with WT virus (NL4-3) (cytopathic cell killing assay, HIV-1 WT), 20 nM; in assay [1], 1800 nM; with HIV-1 variant V108I, more than 10000 nM. The concentration giving a half-maximal response (EC50) is more than 10000 nM in assay [2]; 1700 nM in the assay on HIV-1 variant L100I; 70 nM in the assay with HIV-1 variant L74V; 50 nM with HIV-1 variant V106A; more than 10000 nM with HIV-1 isolate 4xAZT; 100 nM in the assay on HIV-1 variant A98G. The EC50 in the assay on HIV-1 variant V179D was 400 nM; with HIV-1 variant Y188C it was 500 nM; with HIV-1 variant K101E, 600 nM; in the assay on HIV-1 variant K103N, more than 10000 nM. In the assay on WT virus (NL4-3) (cytopathic cell killing assay), the “-fold more potent than the 4-methyl or 4-amino compounds” value amounted to 20 fold.
